Measurements reported in patent US8257478B2, “Use of marine fungus originated compounds as antifouling agents” (The Hong Kong University of Science and Technology, priority 2004, dated 2012).

Key:
[1] = system: Balanus amphitrite larvae; test: in vivo; settings: in vivo
Description: (§1) The larval bioassay was conducted according to Rittschof et al. (1994), which is incorporated by reference herein in its entirety.
Toxicity of cyclo (D)-Pro-(D)-Phe was determined using 24-well polystyrene plates. Pure compound was dissolved in DMSO and added to autoclaved FSW to form different concentrations. Competent Balanus amphitrites larvae (10±2 individuals) were added to each well with 1 ml testing solution in 5 replicates. The wells containing FSW served as the control. The 24-well plates were incubated at 30° C. for 24 h. The percent mortality was determined by counting the number of dead larvae under a dissecting microscope.
(§2) The assay was conducted according to Rittschof et al. (1994). Data plotted are means+SD of five replicates.

[2] = system: barnacle Balanus amphitrite larvae; test: anti-larval settlement bioassay in 24-well plates; format: in vivo; settings: tested range 60-140 μg ml^−1, 24 h
Description: Anti-larval settlement activity of 3-chloro-2,5-dihydroxy benzyl alcohol (compound 1) was conducted using 24-well polystyrene plates. Pure compound was dissolved in DMSO and added to autoclaved FSW at different concentrations. Competent Balanus amphitrites larvae (10±2 individuals) were added to each well with 1 ml testing solution in 5 replicates, and wells containing FSW (filtered seawater) served as control. The 24-well plates were incubated at 30° C. for 24 h. The percent settlement was determined by counting the number of settled larvae under a dissecting microscope. In all bioassays, FSW served as the control. Statistical calculations were performed with the SPSS (Statistical Package for the Social Sciences) software package, Version 11.
as §1, §2
For determining anti-larval settlement activity, adult Balanus amphitrile (Darwin) were collected from the intertidal zone in Hong Kong (22°19′N, 114°16′E). Nauplii obtained from several adults were mass-reared to cyprid stage at a density of 2 larvae ml^−1 in 0.22-μm-filtered seawater with 30 ppt salinity (FSW) using Chaetoceros gracilis Schutt as food and a rearing temperature of 28° C. Newly transformed cyprids were used for the experiment.
Anti-larval settlement activity of succinic acid against B. amphitrite was determined using 24-well polystyrene plates. Pure compound was dissolved in autoclaved FSW ranged from 60-140 μg ml^−1 for B. amphitrite. Competent larvae (15±2 individuals) were added to each well with 1 ml testing solution in 5 replicates, and wells containing FSW served as the control. The 24-well plates were incubated at 30° C. for 24 h. The percent larval settlement was determined by counting the number of settled individuals under a dissecting microscope and expressed as a proportion of the total number of larvae in the well.

[3] = system: Pseudoalteromonas piscida; test: agar disc diffusion assay, inhibition zone; format: cell-based; settings: 30° C., 24 h, read-out: Inhibition Zone Width
Description: (§3) Antibacterial activity was tested against bacteria using an agar disc diffusion assay method. Sterile paper discs (6 mm i.d.) impregnated with the substance under test at a concentration of 50 μg disc^−1 were applied onto the surface of an agar plate (plastic Petri dish) inoculated with one strain with sterile forceps and gently pressed down to ensure good contact with the surface. Blank discs treated with the same volume of DMSO were added. A control disc, containing streptomycin was used. After the application of discs, the plates were incubated at 30° C. for 24 h, and then the size of the inhibition zone was measured.
as §3, with “using” for “using an”, “assay.” for “assay method.”, “disc” for “disc,”, “h. The” for “h, and then the”, “measured. The results are presented in Table 8 and Table 9 for Cyclo (D)-Pro-(D)-Phe and b3-methyl-N-(2-phenylethyl)butanamide, respectively.” for “measured.”

Vibrio fluvialis = test: agar disc diffusion assay, inhibition zone; format: cell-based; settings: 30° C., 24 h, read-out: Inhibition Zone Width
Description: as §3
as §3, with “using” for “using an”, “assay.” for “assay method.”, “disc” for “disc,”, “h. The” for “h, and then the”, “measured. The results are presented in Table 8 and Table 9 for Cyclo (D)-Pro-(D)-Phe and b3-methyl-N-(2-phenylethyl)butanamide, respectively.” for “measured.”

Micrococcus luteus = test: agar disc diffusion assay, inhibition zone; format: cell-based; settings: 30° C., 24 h, read-out: Inhibition Zone Width
Description: as §3
as §3, with “using” for “using an”, “assay.” for “assay method.”, “disc” for “disc,”, “h. The” for “h, and then the”, “measured. The results are presented in Table 8 and Table 9 for Cyclo (D)-Pro-(D)-Phe and b3-methyl-N-(2-phenylethyl)butanamide, respectively.” for “measured.”

Moraxella phenylpyruvica = test: agar disc diffusion assay, inhibition zone; format: cell-based; settings: Psychrobacter phenylpyruvicus, 30° C., 24 h, read-out: Inhibition Zone Width
Description: as §3
as §3, with “using” for “using an”, “assay.” for “assay method.”, “disc” for “disc,”, “h. The” for “h, and then the”, “measured. The results are presented in Table 8 and Table 9 for Cyclo (D)-Pro-(D)-Phe and b3-methyl-N-(2-phenylethyl)butanamide, respectively.” for “measured.”

Shewanella algae = test: agar disc diffusion assay, inhibition zone; format: cell-based; settings: 30° C., 24 h, read-out: Inhibition Zone Width
Description: as §3
as §3, with “using” for “using an”, “assay.” for “assay method.”, “disc” for “disc,”, “h. The” for “h, and then the”, “measured. The results are presented in Table 8 and Table 9 for Cyclo (D)-Pro-(D)-Phe and b3-methyl-N-(2-phenylethyl)butanamide, respectively.” for “measured.”

[4] = system: Staphylococcus haemolyticus; test: agar disc diffusion assay, inhibition zone; format: cell-based; settings: 30° C., 24 h, read-out: Inhibition Zone Width
Description: as §3
as §3, with “using” for “using an”, “assay.” for “assay method.”, “disc” for “disc,”, “h. The” for “h, and then the”, “measured. The results are presented in Table 8 and Table 9 for Cyclo (D)-Pro-(D)-Phe and b3-methyl-N-(2-phenylethyl)butanamide, respectively.” for “measured.”

Vibrio sp. (NAP-4) = test: agar disc diffusion assay, inhibition zone; format: cell-based; settings: 30° C., 24 h, read-out: Inhibition Zone Width
Description: as §3
as §3, with “using” for “using an”, “assay.” for “assay method.”, “disc” for “disc,”, “h. The” for “h, and then the”, “measured. The results are presented in Table 8 and Table 9 for Cyclo (D)-Pro-(D)-Phe and b3-methyl-N-(2-phenylethyl)butanamide, respectively.” for “measured.”

Vibrio harveyi = test: agar disc diffusion assay, inhibition zone; format: cell-based; settings: 30° C., 24 h, read-out: Inhibition Zone Width
Description: as §3
as §3, with “using” for “using an”, “assay.” for “assay method.”, “disc” for “disc,”, “h. The” for “h, and then the”, “measured. The results are presented in Table 8 and Table 9 for Cyclo (D)-Pro-(D)-Phe and b3-methyl-N-(2-phenylethyl)butanamide, respectively.” for “measured.”

Pseudoalteromonas sp. = test: agar disc diffusion assay, inhibition zone; format: cell-based; settings: 30° C., 24 h, read-out: Inhibition Zone Width
Description: as §3
as §3, with “using” for “using an”, “assay.” for “assay method.”, “disc” for “disc,”, “h. The” for “h, and then the”, “measured. The results are presented in Table 8 and Table 9 for Cyclo (D)-Pro-(D)-Phe and b3-methyl-N-(2-phenylethyl)butanamide, respectively.” for “measured.”

Vibrio halioticoli = test: agar disc diffusion assay, inhibition zone; format: cell-based; settings: 100 μg (streptomycin control), 30° C., 24 h, read-out: Inhibition Zone Width
Description: as §3, with “using” for “using an”, “assay.” for “assay method.”, “disc” for “disc,”, “h. The” for “h, and then the”, “measured. The results are presented in Table 8 and Table 9 for Cyclo (D)-Pro-(D)-Phe and b3-methyl-N-(2-phenylethyl)butanamide, respectively.” for “measured.”

Vibrio vulnificus = test: agar disc diffusion assay, inhibition zone; format: cell-based; settings: 100 μg (streptomycin control), 30° C., 24 h, read-out: Inhibition Zone Width
Description: as §3, with “using” for “using an”, “assay.” for “assay method.”, “disc” for “disc,”, “h. The” for “h, and then the”, “measured. The results are presented in Table 8 and Table 9 for Cyclo (D)-Pro-(D)-Phe and b3-methyl-N-(2-phenylethyl)butanamide, respectively.” for “measured.”

Vibrio furnissii = test: agar disc diffusion assay, inhibition zone; format: cell-based; settings: 100 μg (streptomycin control), 30° C., 24 h, read-out: Inhibition Zone Width
Description: as §3, with “using” for “using an”, “assay.” for “assay method.”, “disc” for “disc,”, “h. The” for “h, and then the”, “measured. The results are presented in Table 8 and Table 9 for Cyclo (D)-Pro-(D)-Phe and b3-methyl-N-(2-phenylethyl)butanamide, respectively.” for “measured.”

Loktanella hongkongensis = test: agar disc diffusion assay, inhibition zone; format: cell-based; settings: Limimaricola hongkongensis; 100 μg (streptomycin control), 30° C., 24 h; read-out: Inhibition Zone Width
Description: as §3, with “using” for “using an”, “assay.” for “assay method.”, “disc” for “disc,”, “h. The” for “h, and then the”, “measured. The results are presented in Table 8 and Table 9 for Cyclo (D)-Pro-(D)-Phe and b3-methyl-N-(2-phenylethyl)butanamide, respectively.” for “measured.”

Vibrio alginolyticus = test: agar disc diffusion assay, inhibition zone; format: cell-based; settings: 100 μg (streptomycin control), 30° C., 24 h, read-out: Inhibition Zone Width
Description: as §3, with “using” for “using an”, “assay.” for “assay method.”, “disc” for “disc,”, “h. The” for “h, and then the”, “measured. The results are presented in Table 8 and Table 9 for Cyclo (D)-Pro-(D)-Phe and b3-methyl-N-(2-phenylethyl)butanamide, respectively.” for “measured.”

Rhodovulum sp. = test: agar disc diffusion assay, inhibition zone; format: cell-based; settings: 100 μg (streptomycin control), 30° C., 24 h; read-out: Inhibition Zone Width
Description: as §3, with “using” for “using an”, “assay.” for “assay method.”, “disc” for “disc,”, “h. The” for “h, and then the”, “measured. The results are presented in Table 8 and Table 9 for Cyclo (D)-Pro-(D)-Phe and b3-methyl-N-(2-phenylethyl)butanamide, respectively.” for “measured.”

Staphylococcus aureus = test: agar disc diffusion assay, inhibition zone; format: cell-based; settings: 50 μg/disc, 30° C., 24 h, read-out: Inhibition Zone Width
Description: as §3

Ruegeria sp. = test: agar disc diffusion assay, inhibition zone; format: cell-based; settings: 50 μg/disc, 30° C., 24 h; read-out: Inhibition Zone Width
Description: as §3

O=C(O)CCC(=O)O [Compound 4, succinic acid] was tested, and the “therapeutic ratio LC50/EC50” value [1] was 94.1 and the “concentration showing anti-larval settlement effects” value [2] was 110 µg/mL.

With [H]/N=C(/N)N[C@H]1[C@H](O)[C@@H](O)[C@H](O[C@@H]2O[C@@H](C)[C@](O)(C=O)[C@H]2O[C@@H]2O[C@@H](CO)[C@H](O)[C@@H](O)[C@@H]2NC)[C@@H](N/C(N)=N\[H])[C@@H]1O [Streptomycin, reference compound] the zone of inhibition at 50 µg/disc ([3]; 50 μg/disc) was 5 mm, the zone of inhibition at 100 µg/disc ([3]; 100 μg (streptomycin control)) was 3 ± 1 mm and the zone of inhibition at 50 µg/disc (Vibrio fluvialis; 50 μg/disc) was 4 mm. It also gave a zone of inhibition at 100 µg/disc (Vibrio fluvialis; 100 μg (streptomycin control)) of 3 mm, a zone of inhibition at 50 µg/disc (Micrococcus luteus; 50 μg/disc) of 6.5 mm and a zone of inhibition at 100 µg/disc (Micrococcus luteus; 100 μg (streptomycin control)) of 6.7 ± 0.6 mm. For the same molecule, the zone of inhibition at 50 µg/disc (Moraxella phenylpyruvica; 50 μg/disc) was 0 mm, the zone of inhibition at 100 µg/disc (Moraxella phenylpyruvica; 100 μg (streptomycin control)) was 9 mm and the zone of inhibition at 50 µg/disc (Shewanella algae; 50 μg/disc) was 7 mm. The zone of inhibition at 100 µg/disc (Shewanella algae; 100 μg (streptomycin control)) was 6.3 ± 1.2 mm, the zone of inhibition at 50 µg/disc ([4]; 50 μg/disc) was 6 mm and the zone of inhibition at 100 µg/disc ([4]; 100 μg (streptomycin control)) was 3 mm. For the same molecule, the zone of inhibition at 50 µg/disc (Vibrio sp. (NAP-4); 50 μg/disc) was 4 mm, the zone of inhibition at 100 µg/disc (Vibrio sp. (NAP-4); 100 μg (streptomycin control)) was 5.7 ± 0.6 mm and the zone of inhibition at 50 µg/disc (Vibrio harveyi; 50 μg/disc) was 3 mm. For the same molecule, the zone of inhibition at 100 µg/disc (Vibrio harveyi; 100 μg (streptomycin control)) was 6 mm, the zone of inhibition at 50 µg/disc (Pseudoalteromonas sp.; 50 μg/disc) was 6 mm and the zone of inhibition at 100 µg/disc (Pseudoalteromonas sp.; 100 μg (streptomycin control)) was 4 ± 1 mm. It also gave a zone of inhibition at 100 µg/disc (Vibrio halioticoli) of 4.3 ± 0.6 mm, a zone of inhibition at 100 µg/disc (Vibrio vulnificus) of 3.3 ± 0.8 mm and a zone of inhibition at 100 µg/disc (Vibrio furnissii) of 2.3 ± 0.6 mm. For the same molecule, the zone of inhibition at 100 µg/disc (Loktanella hongkongensis) was 4 mm, the zone of inhibition at 100 µg/disc (Vibrio alginolyticus) was 6.7 ± 2.3 mm and the zone of inhibition at 100 µg/disc (Rhodovulum sp.) was 5.3 ± 1.2 mm. It also gave a zone of inhibition at 50 µg/disc (Staphylococcus aureus) of 3.5 mm and a zone of inhibition at 50 µg/disc (Ruegeria sp.) of 4.5 mm.
